According to publication PMC9769921, “Characteristics of the GlnH and GlnX Signal Transduction Proteins Controlling PknG-Mediated Phosphorylation of OdhI and 2-Oxoglutarate Dehydrogenase Activity in Corynebacterium glutamicum” (Microbiology Spectrum, 2022):
Several values for one entry are separate records, joined by “and”; a condition that tells them apart may be missing. Equal entries are not always repeated.

Key:
His10-GlnHΔSP (GlnH) = His10-GlnHΔSP (GlnH) (Corynebacterium glutamicum, UniProt Q8NM30); test: Isothermal titration calorimetry with His10-GlnHΔSP; format: binding; details: for binding to His10-GlnHΔSP / mean observed enthalpy change: ITC, 40 mM HEPES pH 7, 100 mM KCl; for binding to His10-GlnHΔSP: 10 mM MgCl2; for mean observed enthalpy change: 10 mM MgCl2, 25°C
Text: Based on the similarity to the glutamine-binding protein GlnH of E. coli, which is part of the ABC transporter GlnHPQ ([28], [29]), the protein encoded by cg3045 in the C. glutamicum genome was initially annotated as a putative glutamine binding protein ([20]). […] To characterize the ligand binding properties of GlnH, a soluble protein version lacking the N-terminal signal peptide and the lipobox motif was overproduced in E. coli BL21(DE3) using the expression plasmid pET-TEV-glnHΔSP and purified by Ni^2+-chelate affinity chromatography. The His-tagged protein was used for interaction studies with different potential ligands using isothermal titration calorimetry (ITC). Based on the annotation, L-glutamine was first tested as a ligand, but no binding to His10-GlnHΔSP was observed under the conditions used (40 mM HEPES, pH 7, 100 mM KCl, 10 mM MgCl2). In contrast, L-aspartate and L-glutamate served as ligands for His10-GlnHΔSP, although with moderate affinity. […] In both cases, binding was exothermic with mean observed enthalpy changes of −18.5 ± 4.3 kJ/mol for L-aspartate and −17.5 ± 5.0 kJ/mol for L-glutamate. […] In Fig. 6, representative ITC experiments are shown for the five ligands tested.
Purified His10-GlnHΔSP was dialyzed overnight against a 500-fold excess of dialysis buffer (40 mM HEPES, 100 mM KCl, 10 mM MgCl2, pH 7.0). Stock solutions of the potential ligands L-aspartic acid, L-glutamic acid, L-asparagine, L-glutamine, and 2-oxoglutarate were prepared in dialysis buffer, and the pH was adjusted to pH 7.0 using KOH. ITC measurements were performed with a MicroCal PEAQ-ITC instrument (Malvern Panalytical, Malvern, Great Britain) operated at 25°C. Protein concentrations between 30 μM and 75 μM were used together with ligand concentrations of 7.5 mM to 50 mM. Prior to being filled with 300 μL protein solution, the measuring cell was rinsed with dialysis buffer, while the syringe was filled with 75 μL ligand solution. An ITC run was started with an initial injection of 0.4 μL followed by 12 injections of 3 μL each. In addition, control experiments with ligand solution titrated into the dialysis buffer were performed. The data were analyzed using MicroCal ITC analysis software (Malvern Panalytical), and a fixed 1:1 binding stoichiometry was assumed to determine the binding affinity.

C. glutamicum = tested on: C. glutamicum; set-up: method as in PMID 15870446; details: cited from earlier work
GlnH of C. glutamicum [1] = tested on: GlnH of C. glutamicum; set-up: method as in PMID 30065086; details: cited from earlier work
M. tuberculosis GlnH = target: M. tuberculosis GlnH; set-up: method as in PMID 30065086; details: cited from earlier work
GlnH of C. glutamicum [2] = target: GlnH of C. glutamicum; set-up: method as in PMID 30065086; details: change in intrinsic tryptophan fluorescence; cited from earlier work
His10-GlnHcore (GlnH) = His10-GlnHcore (GlnH) (Corynebacterium glutamicum, UniProt Q8NM30); test: Intrinsic tryptophan fluorescence ligand binding, parental His10-GlnHcore
[3] = target: T1, OdhA subunit of the 2-oxoglutarate dehydrogenase complex (ODH) (Corynebacterium glutamicum (endogenous in C. glutamicum ΔodhI)) (UniProt Q8NRC3)
T1 sequence: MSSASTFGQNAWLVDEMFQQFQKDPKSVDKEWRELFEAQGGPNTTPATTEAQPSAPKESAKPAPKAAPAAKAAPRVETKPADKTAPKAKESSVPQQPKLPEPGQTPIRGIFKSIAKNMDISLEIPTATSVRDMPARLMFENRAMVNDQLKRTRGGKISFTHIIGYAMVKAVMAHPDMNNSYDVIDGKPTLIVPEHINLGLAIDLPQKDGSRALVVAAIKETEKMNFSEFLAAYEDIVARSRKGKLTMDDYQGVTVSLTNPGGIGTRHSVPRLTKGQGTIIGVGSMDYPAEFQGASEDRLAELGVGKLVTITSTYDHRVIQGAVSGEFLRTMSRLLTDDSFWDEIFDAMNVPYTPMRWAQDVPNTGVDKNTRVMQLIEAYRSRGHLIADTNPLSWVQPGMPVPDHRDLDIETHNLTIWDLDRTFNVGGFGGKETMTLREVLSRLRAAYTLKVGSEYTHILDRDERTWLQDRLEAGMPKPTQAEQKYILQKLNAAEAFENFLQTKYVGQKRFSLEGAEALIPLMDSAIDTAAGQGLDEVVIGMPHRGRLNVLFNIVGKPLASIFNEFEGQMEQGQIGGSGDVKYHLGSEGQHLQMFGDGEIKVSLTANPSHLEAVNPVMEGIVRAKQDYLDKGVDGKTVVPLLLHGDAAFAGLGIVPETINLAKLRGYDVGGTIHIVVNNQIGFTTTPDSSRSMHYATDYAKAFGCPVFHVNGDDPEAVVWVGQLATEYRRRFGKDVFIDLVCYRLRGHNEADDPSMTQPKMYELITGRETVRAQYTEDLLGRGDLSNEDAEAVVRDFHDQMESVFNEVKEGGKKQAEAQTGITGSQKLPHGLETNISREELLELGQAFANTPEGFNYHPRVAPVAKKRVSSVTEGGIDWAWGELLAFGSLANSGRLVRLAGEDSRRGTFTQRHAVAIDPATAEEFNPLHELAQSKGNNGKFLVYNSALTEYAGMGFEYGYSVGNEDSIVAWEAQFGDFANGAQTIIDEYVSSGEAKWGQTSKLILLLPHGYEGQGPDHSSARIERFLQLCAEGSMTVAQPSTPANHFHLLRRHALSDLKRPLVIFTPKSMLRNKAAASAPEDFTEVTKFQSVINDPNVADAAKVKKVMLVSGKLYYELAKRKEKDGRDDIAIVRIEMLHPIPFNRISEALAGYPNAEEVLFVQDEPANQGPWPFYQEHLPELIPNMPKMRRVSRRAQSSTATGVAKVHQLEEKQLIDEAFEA

[4] = target: 2-oxoglutarate dehydrogenase complex (ODH) (Corynebacterium glutamicum, UniProt Q8NRC3); test: ODH activity of cell-free extracts of C. glutamicum ΔodhI with added OdhI variants (photometric, NADH formation); details: 100% = 135 ± 12 nmol min^−1 (mg protein)^−1 without added OdhI
Chain of 2-oxoglutarate dehydrogenase complex (ODH) (Q8NTE1 whole entry, one chain of several): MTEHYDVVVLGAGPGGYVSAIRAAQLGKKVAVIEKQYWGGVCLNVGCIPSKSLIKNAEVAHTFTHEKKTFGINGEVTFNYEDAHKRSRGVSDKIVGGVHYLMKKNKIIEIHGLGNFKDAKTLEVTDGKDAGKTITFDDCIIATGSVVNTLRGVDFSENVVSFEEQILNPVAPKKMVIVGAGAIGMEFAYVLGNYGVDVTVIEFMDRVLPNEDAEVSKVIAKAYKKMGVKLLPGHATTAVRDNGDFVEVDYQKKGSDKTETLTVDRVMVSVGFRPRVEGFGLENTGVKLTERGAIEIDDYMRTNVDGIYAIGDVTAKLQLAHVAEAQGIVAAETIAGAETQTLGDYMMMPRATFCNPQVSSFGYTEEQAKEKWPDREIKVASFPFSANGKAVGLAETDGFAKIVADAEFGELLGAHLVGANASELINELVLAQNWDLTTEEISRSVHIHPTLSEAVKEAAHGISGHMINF
Chain of 2-oxoglutarate dehydrogenase complex (ODH) (Q8NNJ2 whole entry, one chain of several, further chain): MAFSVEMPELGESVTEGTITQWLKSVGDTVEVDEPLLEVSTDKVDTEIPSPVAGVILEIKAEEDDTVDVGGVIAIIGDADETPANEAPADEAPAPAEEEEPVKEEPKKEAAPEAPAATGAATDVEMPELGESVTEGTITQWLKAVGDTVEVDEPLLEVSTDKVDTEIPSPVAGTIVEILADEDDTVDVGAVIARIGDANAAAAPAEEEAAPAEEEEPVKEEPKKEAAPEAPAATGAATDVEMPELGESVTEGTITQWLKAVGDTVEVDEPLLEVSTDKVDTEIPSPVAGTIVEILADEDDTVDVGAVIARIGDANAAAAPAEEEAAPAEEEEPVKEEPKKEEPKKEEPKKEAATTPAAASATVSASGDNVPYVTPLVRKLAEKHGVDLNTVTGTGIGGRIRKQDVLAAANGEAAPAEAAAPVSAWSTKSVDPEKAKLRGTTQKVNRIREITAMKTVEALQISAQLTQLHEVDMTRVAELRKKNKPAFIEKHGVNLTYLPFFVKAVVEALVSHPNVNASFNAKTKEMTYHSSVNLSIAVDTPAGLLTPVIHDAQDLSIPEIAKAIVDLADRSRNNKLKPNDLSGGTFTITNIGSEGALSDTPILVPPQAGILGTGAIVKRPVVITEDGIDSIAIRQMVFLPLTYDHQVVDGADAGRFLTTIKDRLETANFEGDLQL
Procedure: Determination of the ODH activity in the presence of different OdhI variants was carried out using a photometric assay following NADH formation as described previously ([6], [8]).

Chain of His10-GlnHΔSP (GlnH) (Q8NM30 entry or part of it, stated change not applied): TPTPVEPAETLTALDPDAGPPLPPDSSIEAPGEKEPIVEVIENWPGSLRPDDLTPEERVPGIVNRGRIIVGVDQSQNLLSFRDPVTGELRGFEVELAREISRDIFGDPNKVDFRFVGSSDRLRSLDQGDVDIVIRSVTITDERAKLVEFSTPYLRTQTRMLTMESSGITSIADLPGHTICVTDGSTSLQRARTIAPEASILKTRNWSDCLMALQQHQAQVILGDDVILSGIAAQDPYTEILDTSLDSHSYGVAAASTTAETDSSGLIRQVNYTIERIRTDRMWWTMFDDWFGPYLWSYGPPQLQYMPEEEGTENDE
Chain of His10-GlnHcore (GlnH) (Q8NM30 entry or part of it): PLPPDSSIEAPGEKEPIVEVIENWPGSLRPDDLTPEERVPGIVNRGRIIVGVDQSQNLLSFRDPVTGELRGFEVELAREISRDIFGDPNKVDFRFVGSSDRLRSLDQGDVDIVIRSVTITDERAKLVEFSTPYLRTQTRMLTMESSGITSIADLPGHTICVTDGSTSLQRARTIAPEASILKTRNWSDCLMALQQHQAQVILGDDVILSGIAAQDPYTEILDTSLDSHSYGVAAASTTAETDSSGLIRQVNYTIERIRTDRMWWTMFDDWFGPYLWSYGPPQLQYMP

O=C(O)CCC(=O)C(=O)O [2-oxoglutarate]
binding to His10-GlnHΔSP (His10-GlnHΔSP (GlnH)): no interaction

CC[C@@H](CO)NCCN[C@@H](CC)CO [Ethambutol]
effect on glutamate secretion (C. glutamicum): trigger glutamate secretion

NC(=O)C[C@H](N)C(=O)O [L-asparagine]
binding to His10-GlnHΔSP (His10-GlnHΔSP (GlnH)): no interaction

N[C@@H](CC(=O)O)C(=O)O [L-aspartate]
effect on thermal stability of GlnH (GlnH of C. glutamicum [1]): increased the thermal stability
Kd (M. tuberculosis GlnH): 4.8 ± 0.6 µM
Kd (GlnH of C. glutamicum [2]): 550 ± 90 µM
Kd (His10-GlnHcore (GlnH)): 242 µM
Kd (His10-GlnHΔSP (GlnH)): 264 ± 14.6 µM
mean observed enthalpy change (His10-GlnHΔSP (GlnH)): -4.42 ± 1.03 kcal/mol

N[C@@H](CCC(=O)O)C(=O)O [L-glutamate]
effect on thermal stability of GlnH (GlnH of C. glutamicum [1]): increased the thermal stability
Kd (M. tuberculosis GlnH): 15.2 ± 5.7 µM
Kd (GlnH of C. glutamicum [2]): 2060 µM
Kd (His10-GlnHcore (GlnH)): 1460 µM
Kd (His10-GlnHΔSP (GlnH)): 1260 µM
mean observed enthalpy change (His10-GlnHΔSP (GlnH)): -4.18 ± 1.2 kcal/mol

NC(=O)CC[C@H](N)C(=O)O [L-glutamine]
binding to His10-GlnHΔSP (His10-GlnHΔSP (GlnH)): no binding

B1: OdhI (natural protein)
chain: MSDNNGTPEPQVETTSVFRADLLKEMESSTGTAPASTGAENLPAGSALLVVKRGPNAGARFLLDQPTTTAGRHPESDIFLDDVTVSRRHAEFRINEGEFEVVDVGSLNGTYVNREPRNAQVMQTGDEIQIGKFRLVFLAGPAE
residual ODH activity of cell-free extracts of C. glutamicum ΔodhI after adding 0.38 nM or 1.9 nM purified OdhI (activity without OdhI = 100%) [3]: 3%

B2: OdhI-R87A (natural protein)
chain: MSDNNGTPEPQVETTSVFRADLLKEMESSTGTAPASTGAENLPAGSALLVVKRGPNAGARFLLDQPTTTAGRHPESDIFLDDVTVSARHAEFRINEGEFEVVDVGSLNGTYVNREPRNAQVMQTGDEIQIGKFRLVFLAGPAE
relative specific ODH activity (residual activity) ([4]; 0.38 nM protein added): 68.9%
residual ODH activity of cell-free extracts of C. glutamicum ΔodhI after adding 0.38 nM or 1.9 nM purified OdhI-R87A (activity without OdhI = 100%) [3]: > 50%

B3: OdhI-R87P (natural protein)
chain: MSDNNGTPEPQVETTSVFRADLLKEMESSTGTAPASTGAENLPAGSALLVVKRGPNAGARFLLDQPTTTAGRHPESDIFLDDVTVSPRHAEFRINEGEFEVVDVGSLNGTYVNREPRNAQVMQTGDEIQIGKFRLVFLAGPAE
relative specific ODH activity (residual activity) ([4]; 0.38 nM protein added): 83.1%
residual ODH activity of cell-free extracts of C. glutamicum ΔodhI after adding 0.38 nM or 1.9 nM purified OdhI-R87P (activity without OdhI = 100%) [3]: > 50%

B4: OdhI: 15-kDa forkhead-associated (FHA) domain-containing protein of C. glutamicum that inhibits ODH; purified, untagged (protein)
chain: MSDNNGTPEPQVETTSVFRADLLKEMESSTGTAPASTGAENLPAGSALLVVKRGPNAGARFLLDQPTTTAGRHPESDIFLDDVTVSRRHAEFRINEGEFEVVDVGSLNGTYVNREPRNAQVMQTGDEIQIGKFRLVFLAGPAE
modifications: left off: His10, N-terminal, cleaved
relative specific ODH activity (residual activity) ([4]; 0.38 nM protein added): 18.6%
relative specific ODH activity (residual activity) ([4]; 1.9 nM protein added): 3% and 3.1%
